Source: ChEMBL document CHEMBL1201862, “PubChem BioAssay data set” (2004)
“And” between values parts separate entries of the source, which are not always exact repeats. Equal values may be shown once. The source made the active and inactive calls.

Experiments:
[1] = biological target: T1, Alkaline phosphatase, tissue-nonspecific isozyme (Homo sapiens, UniProt P05186)
T1 sequence (P05186 whole entry): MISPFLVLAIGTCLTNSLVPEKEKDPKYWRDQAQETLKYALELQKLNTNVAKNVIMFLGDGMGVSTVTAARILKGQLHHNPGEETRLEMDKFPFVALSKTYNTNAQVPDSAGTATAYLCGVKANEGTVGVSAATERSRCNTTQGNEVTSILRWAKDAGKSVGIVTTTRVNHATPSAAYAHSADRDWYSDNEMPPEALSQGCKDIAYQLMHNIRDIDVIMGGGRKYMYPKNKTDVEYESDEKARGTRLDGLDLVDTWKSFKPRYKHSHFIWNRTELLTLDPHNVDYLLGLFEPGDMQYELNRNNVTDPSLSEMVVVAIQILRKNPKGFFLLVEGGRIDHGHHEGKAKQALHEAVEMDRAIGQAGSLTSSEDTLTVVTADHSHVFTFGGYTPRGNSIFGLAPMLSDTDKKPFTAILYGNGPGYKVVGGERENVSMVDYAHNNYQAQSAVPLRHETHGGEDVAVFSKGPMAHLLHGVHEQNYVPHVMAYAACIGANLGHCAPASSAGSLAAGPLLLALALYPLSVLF

[2] = Luminescence Cell-Based Dose Response HTS to Identify Activators of Luciferase Translation or Activity in H4 […] Cells. [Related pubchem assays: 1829 (Project Summary), 1814 (Primary HTS)]; type: functional
H4 = assay: Luminescence Cell-Based Dose Response HTS to Identify Activators of 5'UTR Stem-Loop Driven Prion Protein mRNA Translation in H4 Neuroglioblastoma Cells. [Related pubchem assays: 1829 (Project Summary), 1814 (Primary HTS)]; type: functional; settings: Homo sapiens
Mucolipin-3 [3] = biological target: T2, Mucolipin-3 (Homo sapiens, UniProt Q8TDD5); assay: Dose response cell-based high-throughput screening assay for agonists of the transient receptor potential channel ML3 (TRPML3). [Related pubchem assays: 1526, 1424, 1448 ]; type: functional
Ion channel NompC [4] = biological target: T3, Ion channel NompC (Danio rerio, UniProt Q7T1G6); assay: Fluorescence counterscreen assay for TRPML3 agonists: dose response cell-based high-throughput screening assay to identify agonists of the transient receptor potential channel N1 (TRPN1). [Related pubchem assays: 1526, 1424, 1448 ]; type: functional
Mucolipin-3 [5] = biological target: T2, Mucolipin-3; assay: activators of mucolipin-3 and mucolipin-2 – cell-based, patch clamp, Fura-2 profiling panel, panel member TRPML3 Dose Response (AID 2116)
Ion channel NompC [6] = biological target: T3, Ion channel NompC; assay: activators of mucolipin-3 and mucolipin-2 – cell-based, […], Fura-2 profiling panel, panel member TRPN1 Dose Response (AID 2116)
[7] = biological target: Dual specificity protein phosphatase 3 (Homo sapiens, UniProt P51452); assay: inhibition constants for human DUSP3 – biochemical, colorimetric, SAR follow-up (AID 2004)
[8] = biological target: T4, Eukaryotic translation initiation factor 2-alpha kinase 3 (Homo sapiens, UniProt Q9NZJ5); assay: Dose response cell-based high-throughput screening assay to measure PERK inhibition. [Related pubchem assays: 1416 ]; type: functional
[9] = biological target: T4, Eukaryotic translation initiation factor 2-alpha kinase 3; assay: Counterscreen assay for PERK inhibitors: Dose response cell-based high throughput screening assay to measure inhibition of PERK at 6 hours. [Related pubchem assays: 1522, 1416 ]; type: functional
Streptococcus = assay: Luminescence Microorganism-Based Dose Response Follow up to Identify Compounds Cytotoxic to Streptococcus. [Related pubchem assays: 1677 (Project Summary), 1915, 1914, 1902 (Retest at Dose), 1900 (Counter Screen), 1662 (Primary HTS)]; type: functional, organism-based
Beta-lactamase [10] = biological target: Beta-lactamase (Pseudomonas aeruginosa, UniProt Q79MP6);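 further: biochemical dose-response test of metallo-beta-lactamase enzyme inhibition, read out by epi-absorbance; purified recombinant IMP-1 metallo-beta-lactamase with nitrocefin as substrate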
Leucine aminopeptidase = biological target: T5, Leucine aminopeptidase (Plasmodium falciparum 3D7, UniProt Q8IL11); assay: P. falciparum M17LAP inhibitors, primary screen, biochemical, fluorogenic H-Leu-NHMec substrate, 1536-well (AID 1619); type: functional
T5 sequence (Q8IL11 whole entry): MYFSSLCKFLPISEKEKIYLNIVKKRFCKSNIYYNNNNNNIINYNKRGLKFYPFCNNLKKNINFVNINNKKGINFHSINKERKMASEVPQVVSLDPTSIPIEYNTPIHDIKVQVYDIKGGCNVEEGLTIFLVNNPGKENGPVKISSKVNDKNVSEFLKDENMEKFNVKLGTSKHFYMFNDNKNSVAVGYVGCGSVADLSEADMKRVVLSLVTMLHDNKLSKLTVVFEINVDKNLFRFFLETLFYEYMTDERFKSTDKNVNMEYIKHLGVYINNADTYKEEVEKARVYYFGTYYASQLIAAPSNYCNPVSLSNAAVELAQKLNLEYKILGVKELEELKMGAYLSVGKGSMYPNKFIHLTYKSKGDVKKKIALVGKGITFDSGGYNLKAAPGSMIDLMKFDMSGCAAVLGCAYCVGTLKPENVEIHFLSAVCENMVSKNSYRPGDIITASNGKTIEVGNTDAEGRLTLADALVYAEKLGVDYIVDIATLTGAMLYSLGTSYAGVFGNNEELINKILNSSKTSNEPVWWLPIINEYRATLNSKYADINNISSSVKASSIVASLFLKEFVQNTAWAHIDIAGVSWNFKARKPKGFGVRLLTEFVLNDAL

[11] = mitochondrial function rescue without frataxin homolog – Friedreich's ataxia, plus single-dose screen, dose response (AID 1465); type: functional;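 further: yeast depleted of Yfh1p frataxin homolog grown on glycerol needing respiration; WST-1 tetrazolium dye reduction as measure of cellular dehydrogenase metabolic activity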
[12] = biological target: G-protein coupled receptor 35 (Homo sapiens, UniProt Q9HC97); assay: inhibition of zaprinast-stimulated GPR35 beta-arrestin translocation – imaging, U2OS, beta-arrestin-GFP, zaprinast agonist, primary screen (AID 2058); type: functional;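 further: antagonist potency meaning inhibition of agonist-induced arrestin redistribution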
[13] = biological target: T6, Calpain-2 catalytic subunit (Sus scrofa, UniProt P43367); assay: m-calpain protease blockers, concentration series – biochemical, fluorogenic peptide substrate, dose response (AID 1420); type: functional
T6 sequence (P43367 whole entry): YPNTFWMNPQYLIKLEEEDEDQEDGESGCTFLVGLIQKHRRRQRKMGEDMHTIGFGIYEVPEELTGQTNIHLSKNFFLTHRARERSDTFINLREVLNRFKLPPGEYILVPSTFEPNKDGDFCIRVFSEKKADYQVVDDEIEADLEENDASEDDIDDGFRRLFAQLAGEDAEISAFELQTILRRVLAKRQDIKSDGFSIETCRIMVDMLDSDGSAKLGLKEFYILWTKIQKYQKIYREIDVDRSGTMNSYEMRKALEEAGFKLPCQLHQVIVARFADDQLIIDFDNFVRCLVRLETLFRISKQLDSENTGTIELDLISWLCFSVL

Beta-lactamase [14] = biological target: Beta-lactamase (Salmonella choleraesuis (strain SC-B67), UniProt Q5J463)
[15] = biological target: T7, Dual specificity protein phosphatase 6 (Rattus norvegicus, UniProt Q64346)
T7 sequence (Q64346 whole entry): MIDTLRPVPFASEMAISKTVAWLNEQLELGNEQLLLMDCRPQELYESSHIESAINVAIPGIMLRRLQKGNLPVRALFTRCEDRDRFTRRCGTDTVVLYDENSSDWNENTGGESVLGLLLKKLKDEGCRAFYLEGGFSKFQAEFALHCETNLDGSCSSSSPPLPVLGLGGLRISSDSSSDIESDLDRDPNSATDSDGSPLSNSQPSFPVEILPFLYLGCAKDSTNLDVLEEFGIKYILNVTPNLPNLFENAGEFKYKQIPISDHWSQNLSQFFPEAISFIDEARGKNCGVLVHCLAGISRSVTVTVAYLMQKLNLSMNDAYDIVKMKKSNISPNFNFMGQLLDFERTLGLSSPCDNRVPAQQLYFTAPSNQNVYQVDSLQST

[16] = biological target: Glyceraldehyde-3-phosphate dehydrogenase (Homo sapiens, UniProt P04406)
[17] = biological target: T7, Dual specificity protein phosphatase 6; type: functional
[18] = biological target: T8, Tyrosine-protein phosphatase non-receptor type 7 (Homo sapiens, UniProt P35236); type: functional
T8 sequence (P35236 whole entry): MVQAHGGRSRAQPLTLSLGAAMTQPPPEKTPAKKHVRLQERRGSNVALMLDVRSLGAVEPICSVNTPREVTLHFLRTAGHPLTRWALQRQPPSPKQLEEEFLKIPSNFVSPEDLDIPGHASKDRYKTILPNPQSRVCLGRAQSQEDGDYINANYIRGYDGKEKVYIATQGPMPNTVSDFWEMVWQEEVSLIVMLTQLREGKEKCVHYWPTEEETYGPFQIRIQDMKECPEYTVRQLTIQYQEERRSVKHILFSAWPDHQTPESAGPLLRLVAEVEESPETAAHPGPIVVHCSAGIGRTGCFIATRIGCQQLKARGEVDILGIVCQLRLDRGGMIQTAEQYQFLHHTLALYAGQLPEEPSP

[19] = biological target: T9, Heat shock 70 kDa protein 1A (Homo sapiens, UniProt P0DMV8); assay: small-molecule inhibition of Hsp70 – biochemical, TR-FRET (AID 786)
Bcl-2-like protein 10 = biological target: T10, Bcl-2-like protein 10 (Homo sapiens, UniProt Q9HD36); assay: Bcl-B/TR3 peptide binding disruption – biochemical, fluorescence polarization, FITC-TR3 peptide, selectivity assay for Bfl-1 inhibitor project, primary screen (AID 748);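 further: fluorescence polarization from a fluorescein-labelled TR3 peptide binding purified Bcl-B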
T10 sequence (Q9HD36 whole entry): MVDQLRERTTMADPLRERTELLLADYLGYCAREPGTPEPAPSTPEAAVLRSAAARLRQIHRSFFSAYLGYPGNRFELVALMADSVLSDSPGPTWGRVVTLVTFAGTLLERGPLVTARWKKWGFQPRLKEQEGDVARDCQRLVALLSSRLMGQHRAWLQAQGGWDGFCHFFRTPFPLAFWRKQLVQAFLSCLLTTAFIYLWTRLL

[20] = biological target: T9, Heat shock 70 kDa protein 1A; assay: small molecules displacing fluorescent ligand from Hsp70 – biochemical, fluorescence polarization, primary screen (AID 583)
[21] = biological target: T8, Tyrosine-protein phosphatase non-receptor type 7; assay: redox-active compounds inhibiting HePTP phosphatase – biochemical, fluorescence, mechanism study (AID 2068); type: functional
Protein Rev = Protein Rev (Human immunodeficiency virus type 1 group M subtype B (isolate WMJ22)(HIV-1), UniProt P05866); assay: inhibitors of Rev protein–RRE RNA complex – biochemical, protein-RNA interaction, dose response (AID 842); set-up: species or system Human immunodeficiency virus 1
Staphylococcus aureus = assay: Inhibitors of Bacterial Quorum Sensing Structure Activity Relationship (SAR) Analysis: Dose Response Assay. [Related pubchem assays: 700, 527 ]; type: functional, organism-based
[22] = biological target: Melanin-concentrating hormone receptor 1 (Homo sapiens, UniProt Q99705); assay: Late-stage fluorescence-based counterscreen for antagonists of the G-protein coupled receptor 7 (GPR7): cell-based dose response assay to identify antagonists of the melanin-concentrating hormone receptor 1 (MCHR1). [Related pubchem assays (depositor defined):AID1861, AID1880, AID1952, AID2148, AID2251, AID2257, AID485339]; type: functional;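 further: stimulated with 30 nM MCH peptide agonist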
[23] = biological target: Neurotensin receptor type 1 (Homo sapiens, UniProt P30989); type: functional;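 further: Image-based confirmatory dose-response assay measuring agonist activity at NTR1; NTR1-expressing U2OS osteosarcoma cells imaged for beta-arrestin GFP spot formation; agonist potency where compounds increase beta-arrestin recruitment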
[24] = Luminescence Cell-Based Dose Retest to Confirm Inhibitors of Cancer Stem Cells. [Related pubchem assays (depositor defined):AID2717, AID2721]; type: functional; settings: Homo sapiens
INS1 = assay: INS-1E survival protection against cytokine death – cell-based, luminescence, retest, dose response (AID 449756); type: functional; settings: Rattus norvegicus;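 further: cell death triggered by IL-1 beta plus TNF-alpha plus IFN-gamma mixture; protective hits raise ATP signal compared with cytokine alone wells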

T2 sequence (Q8TDD5 whole entry): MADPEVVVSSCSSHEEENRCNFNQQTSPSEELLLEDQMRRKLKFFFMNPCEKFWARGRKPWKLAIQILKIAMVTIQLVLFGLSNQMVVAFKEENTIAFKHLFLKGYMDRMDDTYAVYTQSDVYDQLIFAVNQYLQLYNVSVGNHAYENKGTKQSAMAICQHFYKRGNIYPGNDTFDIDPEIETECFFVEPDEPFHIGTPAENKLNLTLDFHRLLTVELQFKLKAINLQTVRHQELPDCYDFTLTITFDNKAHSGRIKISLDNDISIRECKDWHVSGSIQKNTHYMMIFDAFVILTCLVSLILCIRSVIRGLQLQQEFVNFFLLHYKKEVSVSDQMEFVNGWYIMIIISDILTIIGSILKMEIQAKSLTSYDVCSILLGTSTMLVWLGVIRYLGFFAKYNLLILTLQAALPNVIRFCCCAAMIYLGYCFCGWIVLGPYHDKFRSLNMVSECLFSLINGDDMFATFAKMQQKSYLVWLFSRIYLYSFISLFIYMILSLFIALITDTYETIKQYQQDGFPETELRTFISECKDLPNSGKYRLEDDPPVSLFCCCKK
T3 sequence (Q7T1G6 whole entry): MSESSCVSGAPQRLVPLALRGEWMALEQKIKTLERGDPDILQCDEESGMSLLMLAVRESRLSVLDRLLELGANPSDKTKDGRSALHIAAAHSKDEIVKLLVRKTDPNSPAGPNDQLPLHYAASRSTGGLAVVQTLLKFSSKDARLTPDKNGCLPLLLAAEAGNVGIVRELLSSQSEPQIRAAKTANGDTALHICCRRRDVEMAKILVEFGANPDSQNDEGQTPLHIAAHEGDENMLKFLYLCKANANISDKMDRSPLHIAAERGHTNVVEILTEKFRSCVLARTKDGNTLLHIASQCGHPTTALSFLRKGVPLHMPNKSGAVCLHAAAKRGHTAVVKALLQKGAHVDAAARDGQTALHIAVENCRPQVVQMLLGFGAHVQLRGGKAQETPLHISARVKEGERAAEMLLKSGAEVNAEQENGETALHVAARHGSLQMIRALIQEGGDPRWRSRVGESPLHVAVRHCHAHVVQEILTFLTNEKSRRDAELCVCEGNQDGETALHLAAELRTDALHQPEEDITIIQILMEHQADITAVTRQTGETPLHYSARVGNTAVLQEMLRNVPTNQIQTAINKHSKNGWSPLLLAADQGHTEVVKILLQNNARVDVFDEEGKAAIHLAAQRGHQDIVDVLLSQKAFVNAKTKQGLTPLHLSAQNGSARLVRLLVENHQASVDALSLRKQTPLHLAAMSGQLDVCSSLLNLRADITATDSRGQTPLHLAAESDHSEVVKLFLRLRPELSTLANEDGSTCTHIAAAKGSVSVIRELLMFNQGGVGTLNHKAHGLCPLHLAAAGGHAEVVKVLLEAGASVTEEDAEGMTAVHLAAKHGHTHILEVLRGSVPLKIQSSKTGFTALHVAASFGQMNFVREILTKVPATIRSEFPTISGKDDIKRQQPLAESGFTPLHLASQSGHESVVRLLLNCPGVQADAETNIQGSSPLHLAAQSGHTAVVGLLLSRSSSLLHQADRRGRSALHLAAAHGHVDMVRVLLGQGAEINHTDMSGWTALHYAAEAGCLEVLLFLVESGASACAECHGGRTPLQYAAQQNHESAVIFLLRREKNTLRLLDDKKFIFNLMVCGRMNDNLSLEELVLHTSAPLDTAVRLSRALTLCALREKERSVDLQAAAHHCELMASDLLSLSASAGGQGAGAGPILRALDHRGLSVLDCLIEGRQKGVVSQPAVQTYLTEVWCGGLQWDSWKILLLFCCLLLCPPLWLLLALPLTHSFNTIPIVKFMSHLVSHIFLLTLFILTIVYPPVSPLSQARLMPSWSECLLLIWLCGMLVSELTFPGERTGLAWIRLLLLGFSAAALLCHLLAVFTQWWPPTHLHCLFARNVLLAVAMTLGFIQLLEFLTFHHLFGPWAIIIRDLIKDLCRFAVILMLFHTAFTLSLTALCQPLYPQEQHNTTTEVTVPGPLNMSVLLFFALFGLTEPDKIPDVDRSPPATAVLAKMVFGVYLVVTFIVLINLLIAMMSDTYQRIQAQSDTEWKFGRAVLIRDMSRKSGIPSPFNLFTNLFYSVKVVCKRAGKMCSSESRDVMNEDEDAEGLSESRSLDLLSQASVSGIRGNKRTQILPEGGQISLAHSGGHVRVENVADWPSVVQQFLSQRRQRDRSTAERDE
T4 sequence (Q9NZJ5 whole entry): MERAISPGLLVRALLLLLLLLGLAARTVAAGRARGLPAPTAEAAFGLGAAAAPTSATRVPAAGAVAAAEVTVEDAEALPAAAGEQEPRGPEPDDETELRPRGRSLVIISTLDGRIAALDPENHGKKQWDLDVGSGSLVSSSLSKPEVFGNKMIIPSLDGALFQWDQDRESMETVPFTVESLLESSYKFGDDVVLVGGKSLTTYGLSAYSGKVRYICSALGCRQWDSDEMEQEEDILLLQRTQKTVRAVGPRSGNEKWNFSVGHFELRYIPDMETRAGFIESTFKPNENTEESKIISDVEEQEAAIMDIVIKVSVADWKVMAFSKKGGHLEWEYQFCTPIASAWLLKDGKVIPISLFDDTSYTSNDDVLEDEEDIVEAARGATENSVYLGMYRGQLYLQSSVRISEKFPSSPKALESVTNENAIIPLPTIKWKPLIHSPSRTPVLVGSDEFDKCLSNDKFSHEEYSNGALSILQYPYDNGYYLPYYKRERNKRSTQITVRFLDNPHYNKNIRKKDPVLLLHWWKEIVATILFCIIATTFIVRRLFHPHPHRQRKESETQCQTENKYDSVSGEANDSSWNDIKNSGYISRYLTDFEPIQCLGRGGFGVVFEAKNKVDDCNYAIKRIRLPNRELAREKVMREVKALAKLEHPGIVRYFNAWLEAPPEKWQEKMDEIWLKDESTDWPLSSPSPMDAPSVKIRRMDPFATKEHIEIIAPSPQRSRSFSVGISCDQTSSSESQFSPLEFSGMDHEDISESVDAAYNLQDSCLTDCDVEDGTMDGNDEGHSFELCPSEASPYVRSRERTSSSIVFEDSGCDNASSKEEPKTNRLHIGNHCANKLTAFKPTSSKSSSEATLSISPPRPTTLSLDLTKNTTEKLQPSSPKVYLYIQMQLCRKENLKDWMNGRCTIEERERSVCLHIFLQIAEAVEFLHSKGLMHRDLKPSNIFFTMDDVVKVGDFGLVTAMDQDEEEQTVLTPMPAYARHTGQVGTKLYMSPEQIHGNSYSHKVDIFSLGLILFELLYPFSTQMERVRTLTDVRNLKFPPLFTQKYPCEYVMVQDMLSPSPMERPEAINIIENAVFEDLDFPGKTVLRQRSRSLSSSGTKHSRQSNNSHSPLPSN
T9 sequence (P0DMV8 whole entry): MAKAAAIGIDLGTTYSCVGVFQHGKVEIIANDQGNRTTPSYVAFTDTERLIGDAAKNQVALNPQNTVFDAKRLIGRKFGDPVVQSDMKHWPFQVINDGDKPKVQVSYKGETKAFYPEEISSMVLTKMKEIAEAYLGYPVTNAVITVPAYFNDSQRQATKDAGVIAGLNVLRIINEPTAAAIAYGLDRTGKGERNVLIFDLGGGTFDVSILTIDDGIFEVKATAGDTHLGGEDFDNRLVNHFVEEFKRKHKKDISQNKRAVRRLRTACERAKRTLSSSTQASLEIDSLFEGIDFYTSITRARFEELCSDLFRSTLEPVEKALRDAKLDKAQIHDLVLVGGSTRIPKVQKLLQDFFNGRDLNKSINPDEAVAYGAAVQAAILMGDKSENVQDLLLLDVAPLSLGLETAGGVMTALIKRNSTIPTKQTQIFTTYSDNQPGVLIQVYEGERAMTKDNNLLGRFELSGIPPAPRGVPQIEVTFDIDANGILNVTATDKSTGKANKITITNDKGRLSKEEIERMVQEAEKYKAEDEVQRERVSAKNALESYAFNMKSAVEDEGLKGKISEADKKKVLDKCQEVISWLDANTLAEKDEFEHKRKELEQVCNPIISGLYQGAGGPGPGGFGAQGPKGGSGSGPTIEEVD
Chain of Glyceraldehyde-3-phosphate dehydrogenase (P04406 whole entry): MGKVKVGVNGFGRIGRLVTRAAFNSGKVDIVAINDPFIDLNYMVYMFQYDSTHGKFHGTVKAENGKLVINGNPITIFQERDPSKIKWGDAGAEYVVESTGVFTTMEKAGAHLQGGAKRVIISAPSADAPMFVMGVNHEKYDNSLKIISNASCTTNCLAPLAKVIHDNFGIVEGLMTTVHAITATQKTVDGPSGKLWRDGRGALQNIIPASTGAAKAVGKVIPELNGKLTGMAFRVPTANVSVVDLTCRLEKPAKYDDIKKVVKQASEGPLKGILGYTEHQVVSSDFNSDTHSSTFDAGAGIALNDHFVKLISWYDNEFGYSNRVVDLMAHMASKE
Chain of G-protein coupled receptor 35 (Q9HC97 whole entry): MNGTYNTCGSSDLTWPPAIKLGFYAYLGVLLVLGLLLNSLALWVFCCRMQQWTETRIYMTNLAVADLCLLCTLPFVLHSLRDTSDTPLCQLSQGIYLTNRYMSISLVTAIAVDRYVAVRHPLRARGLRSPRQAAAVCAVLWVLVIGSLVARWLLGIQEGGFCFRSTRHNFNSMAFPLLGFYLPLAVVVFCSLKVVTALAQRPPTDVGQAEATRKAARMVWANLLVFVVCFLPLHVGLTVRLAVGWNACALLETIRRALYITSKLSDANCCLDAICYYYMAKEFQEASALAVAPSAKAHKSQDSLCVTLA
Chain of Beta-lactamase (Salmonella choleraesuis (strain SC-B67), UniProt Q5J463) (Q5J463 whole entry): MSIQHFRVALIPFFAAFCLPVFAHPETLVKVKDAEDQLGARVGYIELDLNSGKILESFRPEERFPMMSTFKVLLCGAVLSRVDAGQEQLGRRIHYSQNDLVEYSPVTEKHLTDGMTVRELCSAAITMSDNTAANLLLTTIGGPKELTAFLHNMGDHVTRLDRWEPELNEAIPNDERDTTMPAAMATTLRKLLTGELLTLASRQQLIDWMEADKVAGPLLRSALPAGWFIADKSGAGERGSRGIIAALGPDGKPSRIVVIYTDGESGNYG
Chain of Dual specificity protein phosphatase 3 (P51452 whole entry): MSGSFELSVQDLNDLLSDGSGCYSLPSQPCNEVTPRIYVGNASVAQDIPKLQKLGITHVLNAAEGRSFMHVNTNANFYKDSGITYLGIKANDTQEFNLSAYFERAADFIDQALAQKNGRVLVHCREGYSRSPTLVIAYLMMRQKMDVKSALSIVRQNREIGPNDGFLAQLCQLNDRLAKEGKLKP

Cc1ccc(-c2cc(-c3ccccc3[N+](=O)[O-])[nH]n2)c(O)c1
EC50 [1]: 80.2 µM (not active) | EC50 [2]: 2.35 µM (inconclusive) | EC50 (H4): > 120 µM (not active)

O=S(=O)(Nc1ccccc1N1CCCCC1)c1ccc(Cl)s1
EC50 (Mucolipin-3 [3]): 0.872 µM (active) | EC50 (Ion channel NompC [4]): > 29.9 µM (not active) | EC50 (Mucolipin-3 [5]): 0.62 µM (active) | EC50 (Ion channel NompC [6]): > 29.9 µM (inactive)

CC(Oc1ccc2oc(-c3ccccc3)c(C(=O)O)c2c1)C(=O)O (stereo unspecified)
Ki [7]: 102 µM (inactive)

Cn1nccc1NC(=O)Nc1ccc(OC(F)(F)F)cc1
EC50 [8]: > 55.7 µM (not active) | EC50 [9]: > 55.7 µM (not active)

CC(C)(C)N/N=C1\CC(c2ccccc2)Oc2ccccc21 (stereo unspecified)
EC50 (Streptococcus): > 500 µM (not active)

CN1CCN(C2=CC3=CC(=C(C#N)C#N)CCC3CC2)CC1 (stereo unspecified)
IC50 (Beta-lactamase [10]): 3.5 µM (active) | IC50 (Leucine aminopeptidase): 100 µM (active) | EC50 [11]: > 100 µM (active) | IC50 [12]: 2.76 µM (active) | IC50 [13]: 13.9 µM (not active) | IC50 (Beta-lactamase [14]): 2.28 µM (active)

Cn1c(SCC(=O)O)nc2sc3c(c2c1=O)CCC3
IC50 [15]: > 100 µM (inactive) | IC50 [16]: > 100 µM (not active) | IC50 [17]: > 100 µM (inactive) | IC50 [18]: > 100 µM (not active)

O=C(Nc1ccc2nc(-c3ccco3)c(-c3ccco3)nc2c1)N1CCCCCC1
IC50 [19]: > 100 µM (not active) | IC50 (Bcl-2-like protein 10): 0.725 µM (active) | IC50 [20]: > 100 µM (not active) | IC50 [21]: 1.03 µM (active) and 1.85 µM (active)

COc1cccc(Nc2nc(N)nc(-c3oc4ccccc4c3C)n2)c1
IC50 (Protein Rev): > 79.4 µM (not active)

CC(=O)c1cc2c(cc1NC(=O)CN1CCN(C(c3ccccc3)c3ccccc3)CC1)OCO2
IC50 (Staphylococcus aureus): 1.51 µM (active)

COc1ccc(Oc2c(Cl)cnn(-c3ccc(C(C)C)c(C)c3)c2=O)cc1
IC50 [22]: 2 µM (active)

COc1cc(OC)c2cc(C(=O)N/N=C/c3cccc(OC)c3O)[nH]c2c1
EC50 [23]: 19.3 µM (active) | AC50 [24]: 3.97 µM (active) | AC50 (INS1): 3.8 µM (active)
